This passage reports IC50 results from patent US9453026B2, “ACC inhibitors and uses thereof” (Gilead Apollo, Inc., priority 2011, dated 2016).

The structures appear in SMILES notation.

ACC2, sequence (O00763 whole entry, species assumed): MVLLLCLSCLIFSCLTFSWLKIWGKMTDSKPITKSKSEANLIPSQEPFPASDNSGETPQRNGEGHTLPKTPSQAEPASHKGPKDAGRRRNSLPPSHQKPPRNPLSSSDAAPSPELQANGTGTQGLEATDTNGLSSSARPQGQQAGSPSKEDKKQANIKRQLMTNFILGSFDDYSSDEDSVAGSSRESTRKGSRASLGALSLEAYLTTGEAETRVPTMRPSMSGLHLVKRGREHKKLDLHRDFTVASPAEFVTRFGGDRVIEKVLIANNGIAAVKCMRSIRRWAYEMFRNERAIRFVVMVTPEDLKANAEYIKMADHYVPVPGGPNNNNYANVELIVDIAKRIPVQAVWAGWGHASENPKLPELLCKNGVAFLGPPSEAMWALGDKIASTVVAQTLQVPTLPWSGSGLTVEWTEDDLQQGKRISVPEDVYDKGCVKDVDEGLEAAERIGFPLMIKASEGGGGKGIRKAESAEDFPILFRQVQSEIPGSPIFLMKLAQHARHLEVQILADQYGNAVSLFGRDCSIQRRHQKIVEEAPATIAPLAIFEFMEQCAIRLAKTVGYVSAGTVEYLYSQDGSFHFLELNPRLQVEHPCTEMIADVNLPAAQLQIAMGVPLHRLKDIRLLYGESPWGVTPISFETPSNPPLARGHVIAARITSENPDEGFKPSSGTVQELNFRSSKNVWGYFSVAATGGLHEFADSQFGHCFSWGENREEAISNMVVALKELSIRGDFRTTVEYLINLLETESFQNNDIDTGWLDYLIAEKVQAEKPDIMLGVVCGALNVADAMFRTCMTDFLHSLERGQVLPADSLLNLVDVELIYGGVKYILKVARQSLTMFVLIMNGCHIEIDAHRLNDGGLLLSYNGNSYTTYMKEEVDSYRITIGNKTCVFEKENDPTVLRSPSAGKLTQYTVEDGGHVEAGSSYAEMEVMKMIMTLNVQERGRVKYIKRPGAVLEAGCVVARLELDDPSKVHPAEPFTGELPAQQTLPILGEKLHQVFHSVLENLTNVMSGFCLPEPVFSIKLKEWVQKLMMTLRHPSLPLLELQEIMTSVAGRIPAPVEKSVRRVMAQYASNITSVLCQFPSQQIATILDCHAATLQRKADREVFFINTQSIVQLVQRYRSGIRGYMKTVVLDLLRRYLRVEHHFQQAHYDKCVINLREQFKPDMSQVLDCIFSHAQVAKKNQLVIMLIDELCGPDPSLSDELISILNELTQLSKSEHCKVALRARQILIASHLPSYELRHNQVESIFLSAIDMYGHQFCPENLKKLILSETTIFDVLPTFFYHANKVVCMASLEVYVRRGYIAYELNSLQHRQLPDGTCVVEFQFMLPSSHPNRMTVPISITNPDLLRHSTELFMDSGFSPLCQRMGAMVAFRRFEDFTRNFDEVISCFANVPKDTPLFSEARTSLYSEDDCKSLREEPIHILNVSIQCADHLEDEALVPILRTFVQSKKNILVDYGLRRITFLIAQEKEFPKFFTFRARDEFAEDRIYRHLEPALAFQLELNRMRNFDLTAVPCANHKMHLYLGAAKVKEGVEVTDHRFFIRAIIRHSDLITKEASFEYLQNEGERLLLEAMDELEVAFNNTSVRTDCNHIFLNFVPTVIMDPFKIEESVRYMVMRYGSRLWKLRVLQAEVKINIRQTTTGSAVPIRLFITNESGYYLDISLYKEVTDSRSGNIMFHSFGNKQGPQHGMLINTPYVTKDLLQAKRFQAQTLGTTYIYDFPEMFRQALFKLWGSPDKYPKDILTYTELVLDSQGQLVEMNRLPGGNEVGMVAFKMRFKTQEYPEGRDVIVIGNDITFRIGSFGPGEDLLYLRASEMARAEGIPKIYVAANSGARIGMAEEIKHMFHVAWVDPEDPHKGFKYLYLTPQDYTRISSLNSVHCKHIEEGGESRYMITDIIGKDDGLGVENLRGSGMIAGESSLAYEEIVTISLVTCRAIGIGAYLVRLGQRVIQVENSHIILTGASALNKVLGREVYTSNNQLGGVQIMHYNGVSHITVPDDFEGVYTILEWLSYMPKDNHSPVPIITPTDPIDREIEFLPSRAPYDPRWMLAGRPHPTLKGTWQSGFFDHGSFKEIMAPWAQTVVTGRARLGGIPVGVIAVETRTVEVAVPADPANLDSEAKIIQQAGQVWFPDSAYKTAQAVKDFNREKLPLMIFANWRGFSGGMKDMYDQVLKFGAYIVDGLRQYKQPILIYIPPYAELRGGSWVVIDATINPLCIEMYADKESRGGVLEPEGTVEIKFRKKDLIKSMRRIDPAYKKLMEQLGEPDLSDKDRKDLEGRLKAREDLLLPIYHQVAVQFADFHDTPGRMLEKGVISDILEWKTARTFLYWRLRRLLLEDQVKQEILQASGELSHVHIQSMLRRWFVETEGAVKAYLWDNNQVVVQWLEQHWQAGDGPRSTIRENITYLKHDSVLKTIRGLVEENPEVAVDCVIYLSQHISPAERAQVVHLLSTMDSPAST

The experiment deals with ACC2 (Homo sapiens, UniProt O00763). The experiment is described as follows: In vitro ACC2 inhibition assay (ADP-Glo). In kind it is biochemical. Conditions: read-out: ACC2. The method, then:
An exemplary procedure for the in vitro ACC inhibition assay, which can be used to determine the inhibitory action of compounds of the invention toward either ACC1 or ACC2, follows. The ADP-Glo™ Kinase Assay kit from Promega was used. The ADP-Glo™ Kinase Assay is a luminescent ADP detection assay to measure enzymatic activity by quantifying the amount of ADP produced during an enzyme reaction. The assay is performed in two steps; first, after the enzyme reaction, an equal volume of ADP-Glo™ Reagent is added to terminate the reaction and deplete the remaining ATP. Second, the Kinase Detection Reagent is added to simultaneously convert ADP to ATP and allow the newly synthesized ATP to be measured using a luciferase/luciferin reaction. Luminescence can be correlated to ADP concentrations by using an ATP-to-ADP conversion curve. The detailed procedure is as follows. 50 μL of the compound being tested (600 uM in DMSO) was added to a 384-well dilution plate. The compound was diluted 1:3 in succession in DMSO for each row for 11 wells. 0.5 μL ACC2 working solution was added to 384-well white Optiplate assay plate. 0.5 μL diluted compound solution in each column from step 2 to assay plate, each row containing 2 replicates. […] The plates were incubated at room temperature for 15 minutes. 5 μL substrate working solution was added to each well to initiate reaction. […] Plates were incubated at room temperature for 60 minutes. 10 μL ADP glo reagent was added. Plates were incubated at room temperature for 40 minutes. 20 μL kinase detection reagent was added.
Data for each concentration, as well as the positive and negative controls were averaged, and the standard deviation calculated. Percent inhibition was calculated by the formula: 100× (average negative control−compound)/(average negative control−average positive control). The IC50 for each compound was calculated by fitting the data with a non-linear regression equation: Y=Bottom+(Top-Bottom)/(1+10^((Log IC50−X)*HillSlope)), where X is the log of compound concentration and Y is percent inhibition.
The compound numbers correspond to the compound numbers in Table 1.
A general note: ADP-Glo first removes unused ATP, then detects ADP through luciferase.
Consider `CCOC(=O)c1sc2c(c1C)c(=O)n(CC(=O)O)c(=O)n2CC(OC)c1ccccc1` (centres unmarked) [I-67, 2-[6-(ethoxycarbonyl)-1-(2-methoxy-2-phenylethyl)-5-methyl-2,4-dioxo-1H,2H,3H,4H-thieno[2,3-d]pyrimidin-3-yl]acetic acid], for which the IC50 was under 5 µM.
As to `CCCOC(=O)c1sc2c(c1C)c(=O)n(CC(=O)O)c(=O)n2CCc1ccccc1` [I-68, 2-[5-methyl-2,4-dioxo-1-(2-phenylethyl)-6-(propoxycarbonyl)-1H,2H,3H,4H-thieno[2,3-d]pyrimidin-3-yl]acetic acid], the IC50 lay in the range of 5 to 20 µM.
As to `CCOC(=O)c1sc2c(c1C)c(=O)n(C(C)C(N)=O)c(=O)n2CCc1ccccc1` (centres unmarked) [I-69, ethyl 3-(1-carbamoylethyl)-5-methyl-2,4-dioxo-1-(2-phenylethyl)-1H,2H,3H,4H-thieno[2,3-d]pyrimidine-6-carboxylate], the IC50 is under 5 µM.
As to `Cc1c(C(N)=O)sc2c1c(=O)n(CC(=O)O)c(=O)n2CCc1ccccc1` [I-71, 2-[6-carbamoyl-5-methyl-2,4-dioxo-1-(2-phenylethyl)-1H,2H,3H,4H-thieno[2,3-d]pyrimidin-3-yl]acetic acid], the IC50 was over 50 µM.
Next, `CCOC(=O)c1sc2c(c1C)c(=O)n(CS(C)(=O)=O)c(=O)n2CCc1ccccc1` [I-72]: over 50 µM; `CCOC(=O)c1sc2c(c1C)c(=O)n(CC(=O)O)c(=O)n2CC(=O)c1ccccc1` [I-73, 2-[6-(ethoxycarbonyl)-5-methyl-2,4-dioxo-1-(2-oxo-2-phenylethyl)-1H,2H,3H,4H-thieno[2,3-d]pyrimidin-3-yl]acetic acid]: 20 to 50 µM; `CCOC(=O)c1sc2c(c1C)c(=O)n(CC(=O)O)c(=O)n2Cc1ccc2ccn(C)c2c1` [I-74, 2-[6-(ethoxycarbonyl)-5-methyl-1-[(1-methyl-1H-indol-6-yl)methyl]-2,4-dioxo-1H,2H,3H,4H-thieno[2,3-d]pyrimidin-3-yl]acetic acid]: 5 to 20 µM.
Then `COCc1sc2c(c1C)c(=O)n(CC(=O)O)c(=O)n2CCc1ccccc1` [I-75, 2-[6-(methoxymethyl)-5-methyl-2,4-dioxo-1-(2-phenylethyl)-1H,2H,3H,4H-thieno[2,3-d]pyrimidin-3-yl]acetic acid], with 5 to 20 µM.
Next, `CCOC(=O)c1sc2c(c1C)c(=O)n([C@H](C)C(=O)O)c(=O)n2CCc1ccccc1` [I-76, (2R)-2-[6-(ethoxycarbonyl)-5-methyl-2,4-dioxo-1-(2-phenylethyl)-1H,2H,3H,4H-thieno[2,3-d]pyrimidin-3-yl]propanoic acid]: under 5 µM.
Regarding `CCOC(=O)c1sc2c(c1C)c(=O)n(CC(=O)O)c(=O)n2C[C@@H](O)c1ccccc1` [I-77, 2-[6-(ethoxycarbonyl)-1-[(2S)-2-hydroxy-2-phenylethyl]-5-methyl-2,4-dioxo-1H,2H,3H,4H-thieno[2,3-d]pyrimidin-3-yl]acetic acid], the IC50 fell in the range of 5 to 20 µM.
On to `CCOC(=O)c1sc2c(c1C)c(=O)n(CC(=O)O)c(=O)n2C[C@H](O)c1ccccc1` [I-78, 2-[6-(ethoxycarbonyl)-1-[(2R)-2-hydroxy-2-phenylethyl]-5-methyl-2,4-dioxo-1H,2H,3H,4H-thieno[2,3-d]pyrimidin-3-yl]acetic acid], for which the IC50 was under 5 µM.
Take `CCOC(=O)c1sc2c(c1C)c(=O)n(CC(C)(C)O)c(=O)n2CCc1ccccc1` [I-79, ethyl 3-(2-hydroxy-2-methylpropyl)-5-methyl-2,4-dioxo-1-(2-phenylethyl)-1H,2H,3H,4H-thieno[2,3-d]pyrimidine-6-carboxylate]: the IC50 was 5 to 20 µM.
Take `CCOC(=O)c1sc2c(c1C)c(=O)n([C@@H](C)C(=O)O)c(=O)n2CCc1ccccc1` [I-80, (2S)-2-[6-(ethoxycarbonyl)-5-methyl-2,4-dioxo-1-(2-phenylethyl)-1H,2H,3H,4H-thieno[2,3-d]pyrimidin-3-yl]propanoic acid]: the IC50 was under 5 µM.
With `CCOC(=O)c1sc2c(c1C)c(=O)n(C[C@@H](C)O)c(=O)n2CCc1ccccc1` [I-81, ethyl 3-[(2R)-2-hydroxypropyl]-5-methyl-2,4-dioxo-1-(2-phenylethyl)-1H,2H,3H,4H-thieno[2,3-d]pyrimidine-6-carboxylate], the IC50 is 5 to 20 µM.
Regarding `CCOC(=O)c1sc2c(c1C)c(=O)n(C[C@H](C)O)c(=O)n2CCc1ccccc1` [I-82, ethyl 3-[(2S)-2-hydroxypropyl]-5-methyl-2,4-dioxo-1-(2-phenylethyl)-1H,2H,3H,4H-thieno[2,3-d]pyrimidine-6-carboxylate], the IC50 was 5 to 20 µM.
As to `Cc1c(C(=O)OCCO)sc2c1c(=O)n(CC(=O)O)c(=O)n2CCc1ccccc1` [I-83, 2-[6-[(2-hydroxyethoxy)carbonyl]-5-methyl-2,4-dioxo-1-(2-phenylethyl)-1H,2H,3H,4H-thieno[2,3-d]pyrimidin-3-yl]acetic acid], the IC50 is under 5 µM.
In the case of `CCOC(=O)c1sc2c(c1C)c(=O)n(CC(=O)O)c(=O)n2CCc1nc2ccccc2s1` [I-84, 2-[1-[2-(1,3-benzothiazol-2-yl)ethyl]-6-(ethoxycarbonyl)-5-methyl-2,4-dioxo-1H,2H,3H,4H-thieno[2,3-d]pyrimidin-3-yl]acetic acid], the IC50 was over 50 µM.
With `CCOC(=O)c1sc2c(c1C)c(=O)n(CC(=O)O)c(=O)n2CC(OC(C)=O)c1ccccc1` (centres unmarked) [I-85, 2-[1-[2-(acetyloxy)-2-phenylethyl]-6-(ethoxycarbonyl)-5-methyl-2,4-dioxo-1H,2H,3H,4H-thieno[2,3-d]pyrimidin-3-yl]acetic acid], the IC50 is under 5 µM.
On to `Cc1c(C(=O)OC2CCC2)sc2c1c(=O)n(CC(=O)O)c(=O)n2CCc1ccccc1` [I-86, 2-[6-(cyclobutoxycarbonyl)-5-methyl-2,4-dioxo-1-(2-phenylethyl)-1H,2H,3H,4H-thieno[2,3-d]pyrimidin-3-yl]acetic acid], for which the IC50 was 5 to 20 µM.
Regarding `Cc1c(C2=NCCO2)sc2c1c(=O)n(CC(=O)O)c(=O)n2CCc1ccccc1` [I-87, 2-[6-(4,5-dihydro-1,3-oxazol-2-yl)-5-methyl-2,4-dioxo-1-(2-phenylethyl)-1H,2H,3H,4H-thieno[2,3-d]pyrimidin-3-yl]acetic acid], the IC50 was under 5 µM.
Regarding `CCOC(=O)c1sc2c(c1C)c(=O)n(CC(=O)O)c(=O)n2Cc1cc2ccccc2[nH]1` [I-88, 2-[6-(ethoxycarbonyl)-1-(1H-indol-2-ylmethyl)-5-methyl-2,4-dioxo-1H,2H,3H,4H-thieno[2,3-d]pyrimidin-3-yl]acetic acid], the IC50 was over 50 µM.
`CCOC(=O)c1sc2c(c1C)c(=O)n(CC(=O)O)c(=O)n2Cc1ccc2[nH]ccc2c1` [I-90, 2-[6-(ethoxycarbonyl)-1-(1H-indol-5-ylmethyl)-5-methyl-2,4-dioxo-1H,2H,3H,4H-thieno[2,3-d]pyrimidin-3-yl]acetic acid]: the IC50 lay in the range of 20 to 50 µM.
For `CCOC(=O)c1cc2c(=O)n(CC(=O)O)c(=O)n(CCc3ccccc3)c2s1` [I-91, 2-[6-(ethoxycarbonyl)-2,4-dioxo-1-(2-phenylethyl)-1H,2H,3H,4H-thieno[2,3-d]pyrimidin-3-yl]acetic acid], the IC50 was in the range of 5 to 20 µM.
As for `Cc1c(-c2ncco2)sc2c1c(=O)n(CC(=O)O)c(=O)n2CCc1ccccc1` [I-92, 2-[5-methyl-6-(1,3-oxazol-2-yl)-2,4-dioxo-1-(2-phenylethyl)-1H,2H,3H,4H-thieno[2,3-d]pyrimidin-3-yl]acetic acid], the IC50 was under 5 µM.
As to `CCOC(=O)c1sc2c(c1C(F)(F)F)c(=O)n(CC(=O)O)c(=O)n2CCc1ccccc1` [I-94, 2-[6-(ethoxycarbonyl)-2,4-dioxo-1-(2-phenylethyl)-5-(trifluoromethyl)-1H,2H,3H,4H-thieno[2,3-d]pyrimidin-3-yl]acetic acid], the IC50 is under 5 µM.
Then `CCOC(=O)c1sc2c(c1C)c(=O)n(C(C)(C)C(=O)O)c(=O)n2CCc1ccc(I)cc1` [I-95, 2-[6-(ethoxycarbonyl)-1-[2-(4-iodophenyl)ethyl]-5-methyl-2,4-dioxo-1H,2H,3H,4H-thieno[2,3-d]pyrimidin-3-yl]-2-methylpropanoic acid], with 20 to 50 µM; and `CCOC(=O)c1sc2c(c1C)c(=O)n(C(C)(C)C(=O)O)c(=O)n2CCc1ccccc1O` [I-99, 2-[6-(ethoxycarbonyl)-1-[2-(2-hydroxyphenyl)ethyl]-5-methyl-2,4-dioxo-1H,2H,3H,4H-thieno[2,3-d]pyrimidin-3-yl]-2-methylpropanoic acid], with under 5 µM; and `CCOC(=O)c1sc2c(c1C)c(=O)n(CC(=O)O)c(=O)n2CC(OC(=O)COC)c1ccccc1` (centres unmarked) [I-101, 2-[6-(ethoxycarbonyl)-1-[2-[(2-methoxyacetyl)oxy]-2-phenylethyl]-5-methyl-2,4-dioxo-1H,2H,3H,4H-thieno[2,3-d]pyrimidin-3-yl]acetic acid], with 5 to 20 µM.
Then `CCOC(=O)c1sc2c(c1C)c(=O)n(C(C)(C)C(=O)O)c(=O)n2C[C@@H](O)c1ccccc1` [I-102, 2-[6-(ethoxycarbonyl)-1-[(2S)-2-hydroxy-2-phenylethyl]-5-methyl-2,4-dioxo-1H,2H,3H,4H-thieno[2,3-d]pyrimidin-3-yl]-2-methylpropanoic acid], with 5 to 20 µM.
